Measurements reported in patent publication US5141627A, “Chelators whose affinity for calcium ion is increased by illumination” (The Regents of the University of California, priority 1989, dated 1992).

Key:
[1] = Flash photolysis kinetics of carboxylic acid formation (H+ release, cresol red); type: physicochemical; conditions: pH 8.0, 20° C.; for τ, time constant of phenylacetate formation and H+ release after flash photolysis, free: zero [Ca2+]
From the text: When a diazoketone is photolyzed in aqueous solution the major ultimate product is a carboxylic acid. […] Product formation is thus accompanied by proton release generated (Compound 3c, Scheme I). Product formation is thus accompanied by proton release which is readily monitored spectroscopically if a suitable acid-base indicator is used. Cresol red (pKa 8.2) is chosen to monitor proton release following flash photolysis of the diazo compounds in aqueous solutions adjusted to pH 8. […] The absorbance of cresol red at 572 nm decreases with decreasing pH. As the carboxylic acid product, 3c, is generated, the solution acidifies and the transmittance of the sample is expected to rise. […] The chemical structure of the photo-labile chromophore in diazo-3 is essentially identical to that in diazo-2 (FIG. 6, Scheme IV). Correspondingly, flash photolysis of diazo-3 under identical conditions yield experimental traces which were qualitatively the same as those obtained for diazo-2. In Table I is presented the characteristic time constants for carboxylic acid formation following flash photolysis of diazo-2 and diazo-3. Flash photolysis of Ca^2+ -bound diazo-2 produced the carboxylic acid with a characteristic time of 134 μs. The time slowed to 433 μs when Ca^2+ -free diazo-2 was photolyzed.
Diazo-2 was dissolved at 70 μM concentration in 100 mM KCl, 40 μM H4. BAPTA, and enough cresol red to yield OD572 =0.1 after the solution has been adjusted to pH 8. Transmitted light intensity at 572 nm was monitored using an HG-Xe.arc lamp, a monochromator, a photo multiplier and a Biomation transient recorder. Each small division of the ordinate corresponds to 0.002 absorbance unit. The small upward spike at time zero is an optical artifact from the xenon flash lamp. The solid trace is from the sample containing diazo-2. For comparison, the dotted trace is from a photochemically inert sample containing cresol red in 100 mM KCl at pH about 8.
Kinetics of the conversion of diazo-2 and diazo-3 to the carboxylic acid products and the kinetics of Ca^2+ binding by photolyzed diazo-2 were measured by flash photolysis and pH monitoring. The experiments were done in a Dialog apparatus (Garching, FRG) normally used for temperature jumps. The xenon flash lamp was a Model 6100SP7 (Photochemical Research Associates, London, Ontario, Canada) modified to give a light pulse with a full width at half maximum of 85 μs. The output of the xenon lamp was passed through a UG-2 filter to yield broad-band UV radiation in the 330-390 range. Since neither the flash lamp nor the kinetic spectrometer was optimized for light energy, the response amplitudes achieved in the experiments are far from those attainable during a biological experiment. […]

[2] = Ca2+ affinity by UV spectra during titration of EGTA or HEEDTA buffers; type: binding; conditions: after photolysis; 0.25M ionic strength (0.2M KCl, 0.05M NaCl), 18° C.
[3] = Chemical stability in aqueous base or acid; type: physicochemical
From the text: Diazo-2 tetramethyl ester, Compound 3J, was saponified to the tetra-anion by dissolution in methanol (gentle heat), addition of an excess of aqueous 1M potassium hydroxide solution and keeping at room temperature several hours, preferably overnight. […] The purity of diazo-2 solutions can be determined by measuring the extent of absorbance change on complete photolysis (FIG. 1B) as contaminants contribute absorbance at 355 nm. Diazo-1, -3, and -4 esters were saponified analogously.

[4] = tested on: cells; assay: Effect in cells of microinjected chelator on Ca2+ after photolysis; type: cell-based; conditions: microinjected into cells
[5] = Covalent modification of lysine by photochemical intermediates (HPLC); conditions: pH 7.2
Procedure: To study the extent to which biological substrates are covalently modified by reactive intermediates generated by the photolysis of the diazoketones,100 μM diazo-3 in the presence of 10 mM phosphate and either 100 mM KCl or 100 mM lysine.HCl, at pH 7.2 was photolyzed. The photolysates were analyzed by HPLC (Waters Associates, Inc., Milford, Mass.; C-18 column, Supelco, Inc., Bellefonte, Pa.), with 10 mM KH2 PO4 /K2 HPO4 buffer at pH 7.2 as eluting solvent. The absorbance of the eluate at 254 nm was monitored. Before being injected onto the column, concentrated stock solutions of either KCl or lysine.HCl were added to the photolysate to insure that the electrolyte composition of the injected samples were identical. Thus, 10 μL of 1M KCl were added to 100 μL of the samples of diazo-3 photolyzed in lysine.HCl, while 10 μL of 1M lysine.HCl were added to 100 μL of the sample of diazo-3 photolyzed in KCl.

Row | Kd [2] | stability on concentration to a solid (in words) ([3]; from dilute aqueous base, concentrated to a solid) | stability in dilute aqueous base (in words) ([3]; methanol/aqueous KOH, room temperature, several hours to overnight) | stability in strong aqueous base or acid (in words) ([3]; pH>13 or pH<4) | SMILES | τ, time constant of phenylacetate formation and H+ release after flash photolysis, +Ca2+ ([1]; saturating [Ca2+], additional fast alkalinization component present) | τ, time constant of phenylacetate formation and H+ release after flash photolysis, free [1] | sequestering Ca2+ after photolysis (in words) [4] | covalently modified lysines ([5]; 100 μM diazo-3, 200 mM lysine.HCl (so in the source)) | frequency of covalent lysine modification ([5]; 100 μM diazo-3 photolyzed in 100 mM lysine.HCl) | absorbance under new (lysine-modified) peak ([5]; 100 μM diazo-3 photolyzed in 100 mM lysine.HCl, % of total absorbance) | modified lysine produced ([5]; 100 μM diazo-3 photolyzed in 100 mM lysine.HCl, calculated) | τ, time constant of phenylacetate formation and H+ release after flash photolysis, free ([1]; listed as Diazo-3)
1 | 0.15 µM | decomposes and becomes light-insensitive | stable | unstable | Cc1ccc(N(CC(=O)O)CC(=O)O)c(OCCOc2cc(C(=O)C=[N+]=[N-])ccc2N(CC(=O)O)CC(=O)O)c1 [diazo-2, 1-(2-bis(carboxymethyl)amino-5-methyl) phenoxy-2-(2-bis(carboxymethyl)amino-5-(diazoacetyl)phenoxy) ethane] | 134 μs | 433 μs | effective in sequestering Ca^2+ after photolysis | – | – | – | – | –
2 | – | – | – | – | COc1cc(C(=O)C=[N+]=[N-])ccc1N(CC(=O)O)CC(=O)O [diazo-3, 2-methoxy-4-(diazoacetyl)aniline-N, N-diacetic acid] | – | 239 μs | – | 6 lysines in 10^5 | about 6×10^-5 | about 6% | about 6 μM | 238 μs
